Data: PMC7170919, “The chloroalkaloid (−)-acutumine is biosynthesized via a Fe(II)- and 2-oxoglutarate-dependent halogenase in Menispermaceae plants” (Nature Communications, 2020)

Experiments:
Type in all cases: biochemical
SaDAH [1] = molecular target: T1, SaDAH (Sinomenium acutum, UniProt A0A6M3RD65); assay: LC-MS quantification of (−)-acutumine formed; details: 2OG 500 µM, NaCl 1 mM, ascorbate 5 mM, (NH4)2Fe(SO4)2 2 mM; 30 nM enzyme, 10 min; chlorination
T1 construct: codon-optimized, N-terminal 8xHis-TEV tag (pHis8-4) cleaved, E. coli BL21(DE3)

SaDAH [2] = molecular target: T2, SaDAH (Sinomenium acutum, UniProt A0A6M3RD65, G226D); assay: in vitro enzyme assay, LC-HRAM-MS; details: 2OG 500 µM, NaCl 1 mM, Fe(II) 2 mM, ascorbate 5 mM, Tris pH 8.0, room temperature; hydroxylation
T2 construct: codon-optimized, N-terminal 8xHis-TEV tag (pHis8-4) cleaved, E. coli BL21(DE3)

McDAH = molecular target: T3, McDAH (Menispermum canadense, UniProt A0A6M3RHU8); assay: in vitro enzyme assay, LC-MS; details: 2OG-dependent chlorination, 1 mM NaCl
T3 sequence (A0A6M3RHU8 1-351): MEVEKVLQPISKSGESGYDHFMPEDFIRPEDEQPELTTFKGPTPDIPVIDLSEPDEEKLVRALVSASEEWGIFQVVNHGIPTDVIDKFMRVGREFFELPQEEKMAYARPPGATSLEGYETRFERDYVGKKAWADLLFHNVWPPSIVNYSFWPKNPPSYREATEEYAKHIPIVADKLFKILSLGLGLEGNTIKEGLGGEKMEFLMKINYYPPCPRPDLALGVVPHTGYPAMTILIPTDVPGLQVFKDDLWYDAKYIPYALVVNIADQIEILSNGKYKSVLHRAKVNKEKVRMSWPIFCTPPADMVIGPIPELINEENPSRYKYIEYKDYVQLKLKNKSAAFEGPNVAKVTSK

T1 sequence (A0A6M3RD65 entry or part of it): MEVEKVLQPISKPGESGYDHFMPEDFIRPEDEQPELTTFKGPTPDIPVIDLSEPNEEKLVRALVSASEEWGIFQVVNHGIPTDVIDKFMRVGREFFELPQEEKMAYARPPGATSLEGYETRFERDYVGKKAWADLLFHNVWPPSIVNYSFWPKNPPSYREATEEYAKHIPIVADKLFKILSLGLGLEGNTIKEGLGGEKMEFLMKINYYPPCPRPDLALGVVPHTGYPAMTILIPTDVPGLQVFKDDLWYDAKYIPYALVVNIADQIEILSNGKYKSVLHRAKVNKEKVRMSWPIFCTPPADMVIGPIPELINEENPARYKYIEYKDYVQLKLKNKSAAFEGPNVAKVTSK
T2 sequence (A0A6M3RD65 entry or part of it G226D): as the sequence (A0A6M3RD65 entry or part of it) above, with G226D counted along it

COC1=CC(=O)C2(CCC34C(OC)=C(OC)C(=O)CC23CCN4C)C1O (single isomer, unassigned; (-)) [compound 5, (−)-dechloroacutumine]
Km (SaDAH [1]): 18.4 ± 7.13 µM | in vitro enzyme assay, LC-HRAM-MS (SaDAH [2]): exhibits exclusive (−)-dechloroacutumine hydroxylase activity to give the hydroxylation product 11-hydroxy-dechloroacutumine | in vitro enzyme assay, LC-MS (McDAH): Recombinant McDAH exhibits identical activity to SaDAH
